# Laboratory results as given in publication PMC9653409, “Generative deep learning enables the discovery of a potent and selective RIPK1 inhibitor” (Nature Communications, 2022).
# Assays:
# Assay in all cases: Kinase inhibitory activity profiling of RI-962@10 µM (406 kinases, Eurofins)
# Assay type in all cases: biochemical
# [1] = target: panel of human kinases (kinase named in endpoint) (Homo sapiens, UniProt O15530); conditions: 10 µM; read-out: Activity (%), PDK1(h)
# Method: (§1) In vitro kinase activity assays were conducted through the Kinase Profiling Services provided by Eurofins (Eurofins, France). The protocol for the RIPK1 assay is briefly described as follows (Protocols for other kinases are very similar and can be found in http://www.eurofins.com/pharmadiscovery). RIPK1 kinase was incubated with the test compound in assay buffer containing 8 mM MOPS (pH 7.0), 0.2 mM EDTA, 250 μM […], 10 mM magnesium acetate, and 10 μM [γ-33P]-ATP for 15 min at room temperature. The reaction was initiated by the addition of the Mg/ATP mixture. After incubation for 40 min at room temperature, and the reaction was stopped by the addition of 3% phosphoric acid. A 10 μL portion of the reaction mixture was then spotted onto a P30 filter mat and washed four times for 4 min in 0.425% phosphoric acid and once in methanol prior to drying and scintillation counting.
# [2] = target: panel of human kinases (kinase named in endpoint) (Homo sapiens, UniProt O75914); conditions: 10 µM; read-out: Activity (%), PAK3(h)
# Method: as §1
# [3] = target: panel of human kinases (kinase named in endpoint) (Homo sapiens, UniProt O96017, R145W); conditions: 10 µM; read-out: Activity (%), CHK2(R145W)(h)
# Method: as §1
# [4] = target: panel of human kinases (kinase named in endpoint) (Homo sapiens, UniProt P08581, D1228N); conditions: 10 µM; read-out: Activity (%), Met(D1246N)(h)
# Method: as §1
# [5] = target: panel of human kinases (kinase named in endpoint) (Homo sapiens, UniProt P08581, Y1230H); conditions: 10 µM; read-out: Activity (%), Met(Y1248H)(h)
# Method: as §1
# [6] = target: panel of human kinases (kinase named in endpoint) (Homo sapiens, UniProt P14616); conditions: 10 µM; read-out: Activity (%), IRR(h)
# Method: as §1
# [7] = target: panel of human kinases (kinase named in endpoint) (Homo sapiens, UniProt P15056); conditions: 10 µM; read-out: Activity (%), B-Raf(h)
# Chain of panel of human kinases (kinase named in endpoint) (Homo sapiens, UniProt P15056) (P15056 whole entry): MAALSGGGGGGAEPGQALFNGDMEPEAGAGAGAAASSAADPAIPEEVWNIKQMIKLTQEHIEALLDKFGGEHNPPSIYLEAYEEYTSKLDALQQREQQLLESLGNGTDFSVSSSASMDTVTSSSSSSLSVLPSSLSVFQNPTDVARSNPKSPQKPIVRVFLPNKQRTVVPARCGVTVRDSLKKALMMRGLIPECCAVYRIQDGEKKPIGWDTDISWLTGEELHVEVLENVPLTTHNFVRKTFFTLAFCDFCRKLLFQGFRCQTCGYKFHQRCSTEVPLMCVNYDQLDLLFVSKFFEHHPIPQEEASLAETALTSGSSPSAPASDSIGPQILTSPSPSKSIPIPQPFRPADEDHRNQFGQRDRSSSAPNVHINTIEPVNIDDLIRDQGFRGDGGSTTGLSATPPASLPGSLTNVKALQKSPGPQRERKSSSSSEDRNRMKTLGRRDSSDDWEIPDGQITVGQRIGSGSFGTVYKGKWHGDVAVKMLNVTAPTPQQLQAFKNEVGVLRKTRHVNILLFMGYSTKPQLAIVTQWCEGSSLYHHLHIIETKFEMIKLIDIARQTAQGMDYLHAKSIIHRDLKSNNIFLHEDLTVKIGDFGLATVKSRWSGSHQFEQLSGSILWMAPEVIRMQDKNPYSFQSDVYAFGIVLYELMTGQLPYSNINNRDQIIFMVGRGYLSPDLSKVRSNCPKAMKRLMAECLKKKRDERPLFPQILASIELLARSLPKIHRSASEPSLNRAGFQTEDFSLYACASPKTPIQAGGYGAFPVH
# Method: as §1
# [8] = target: panel of human kinases (kinase named in endpoint) (Homo sapiens, UniProt P21802); conditions: 10 µM; read-out: Activity (%), FGFR2(h)
# Method: as §1
# [9] = target: panel of human kinases (kinase named in endpoint) (Homo sapiens, UniProt P28482); conditions: 10 µM; read-out: Activity (%), MAPK2(h)
# Method: as §1
# [10] = target: panel of human kinases (kinase named in endpoint) (Homo sapiens, UniProt P29323); conditions: 10 µM; read-out: Activity (%), EphB2(h)
# Method: as §1
# [11] = target: panel of human kinases (kinase named in endpoint) (Homo sapiens, UniProt P30291); conditions: 10 µM; read-out: Activity (%), Wee1(h)
# Chain of panel of human kinases (kinase named in endpoint) (Homo sapiens, UniProt P30291) (P30291 whole entry): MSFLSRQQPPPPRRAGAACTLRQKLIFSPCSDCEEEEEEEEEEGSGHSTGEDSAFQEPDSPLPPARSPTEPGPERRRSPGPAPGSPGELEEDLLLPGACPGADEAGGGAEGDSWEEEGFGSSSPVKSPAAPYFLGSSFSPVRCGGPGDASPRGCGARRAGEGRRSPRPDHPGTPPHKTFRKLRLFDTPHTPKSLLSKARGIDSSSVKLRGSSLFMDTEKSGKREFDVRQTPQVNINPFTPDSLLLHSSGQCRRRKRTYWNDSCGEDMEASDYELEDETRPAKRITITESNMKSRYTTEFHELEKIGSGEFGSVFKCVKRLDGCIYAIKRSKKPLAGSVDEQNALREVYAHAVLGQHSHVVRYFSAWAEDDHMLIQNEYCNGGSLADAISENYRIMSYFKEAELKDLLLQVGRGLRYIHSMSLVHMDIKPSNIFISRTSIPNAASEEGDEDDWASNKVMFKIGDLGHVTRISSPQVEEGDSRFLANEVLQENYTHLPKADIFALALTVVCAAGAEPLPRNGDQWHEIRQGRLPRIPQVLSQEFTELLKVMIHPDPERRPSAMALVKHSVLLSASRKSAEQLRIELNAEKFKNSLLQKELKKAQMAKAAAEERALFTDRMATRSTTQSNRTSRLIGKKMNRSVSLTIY
# Method: as §1
# [12] = target: panel of human kinases (kinase named in endpoint) (Homo sapiens, UniProt P31749); conditions: 10 µM; read-out: Activity (%), PKBα(h)
# Chain of panel of human kinases (kinase named in endpoint) (Homo sapiens, UniProt P31749) (P31749 whole entry): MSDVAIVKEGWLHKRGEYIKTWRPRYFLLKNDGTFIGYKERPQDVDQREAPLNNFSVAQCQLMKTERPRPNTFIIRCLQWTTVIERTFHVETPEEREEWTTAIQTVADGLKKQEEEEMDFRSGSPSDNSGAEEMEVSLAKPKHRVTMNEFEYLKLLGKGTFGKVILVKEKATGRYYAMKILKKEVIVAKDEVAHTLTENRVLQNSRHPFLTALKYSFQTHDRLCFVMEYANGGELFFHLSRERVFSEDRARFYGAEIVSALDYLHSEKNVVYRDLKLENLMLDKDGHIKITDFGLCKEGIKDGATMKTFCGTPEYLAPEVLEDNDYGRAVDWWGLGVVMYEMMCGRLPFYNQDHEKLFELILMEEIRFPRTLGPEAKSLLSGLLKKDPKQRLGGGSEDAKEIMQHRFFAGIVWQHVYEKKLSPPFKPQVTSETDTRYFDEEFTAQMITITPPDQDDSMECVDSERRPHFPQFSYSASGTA
# Method: as §1
# [13] = target: panel of human kinases (kinase named in endpoint) (Homo sapiens, UniProt P41240); conditions: 10 µM; read-out: Activity (%), CSK(h)
# Chain of panel of human kinases (kinase named in endpoint) (Homo sapiens, UniProt P41240) (P41240 whole entry): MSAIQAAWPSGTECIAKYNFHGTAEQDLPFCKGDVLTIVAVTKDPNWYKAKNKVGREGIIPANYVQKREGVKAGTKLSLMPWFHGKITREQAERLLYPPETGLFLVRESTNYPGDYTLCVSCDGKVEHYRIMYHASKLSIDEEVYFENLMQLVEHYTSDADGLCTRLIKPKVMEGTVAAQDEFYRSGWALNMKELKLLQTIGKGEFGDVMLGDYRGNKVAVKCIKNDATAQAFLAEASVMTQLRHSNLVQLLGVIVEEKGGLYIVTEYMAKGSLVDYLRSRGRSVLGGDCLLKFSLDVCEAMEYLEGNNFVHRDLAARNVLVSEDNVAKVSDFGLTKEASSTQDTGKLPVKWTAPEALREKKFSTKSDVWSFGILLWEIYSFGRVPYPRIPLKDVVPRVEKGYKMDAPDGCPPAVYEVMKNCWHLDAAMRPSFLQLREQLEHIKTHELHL
# Method: as §1
# [14] = target: panel of human kinases (kinase named in endpoint) (Homo sapiens, UniProt P42336, E542K); conditions: 10 µM; read-out: Activity (%), PI3(p110a(E542K)/p85a)
# Method: as §1
# [15] = target: panel of human kinases (kinase named in endpoint) (Homo sapiens, UniProt P42685); conditions: 10 µM; read-out: Activity (%), PTK5(h)
# Method: as §1
# [16] = target: panel of human kinases (kinase named in endpoint) (Homo sapiens, UniProt P54753); conditions: 10 µM; read-out: Activity (%), EphB3(h)
# Method: as §1
# [17] = target: panel of human kinases (kinase named in endpoint) (Homo sapiens, UniProt Q00537); conditions: 10 µM; read-out: Activity (%), CDK17/cyclinY(h)
# Method: as §1
# [18] = target: panel of human kinases (kinase named in endpoint) (Homo sapiens, UniProt Q12866); conditions: 10 µM; read-out: Activity (%), Mer(h)
# Method: as §1
# [19] = target: panel of human kinases (kinase named in endpoint) (Homo sapiens, UniProt Q13523); conditions: 10 µM; read-out: Activity (%), PRP4(h)
# Method: as §1
# [20] = target: panel of human kinases (kinase named in endpoint) (Homo sapiens, UniProt Q8IVW4); conditions: 10 µM; read-out: Activity (%), CDKL3(h)
# Method: as §1
# [21] = target: panel of human kinases (kinase named in endpoint) (Homo sapiens, UniProt Q96NX5); conditions: 10 µM; read-out: Activity (%), CaMKIγ(h)
# Method: as §1
# [22] = target: panel of human kinases (kinase named in endpoint) (Homo sapiens, UniProt Q96QT4); conditions: 10 µM; read-out: Activity (%), ChaK1(h)
# Chain of panel of human kinases (kinase named in endpoint) (Homo sapiens, UniProt Q96QT4) (Q96QT4 whole entry): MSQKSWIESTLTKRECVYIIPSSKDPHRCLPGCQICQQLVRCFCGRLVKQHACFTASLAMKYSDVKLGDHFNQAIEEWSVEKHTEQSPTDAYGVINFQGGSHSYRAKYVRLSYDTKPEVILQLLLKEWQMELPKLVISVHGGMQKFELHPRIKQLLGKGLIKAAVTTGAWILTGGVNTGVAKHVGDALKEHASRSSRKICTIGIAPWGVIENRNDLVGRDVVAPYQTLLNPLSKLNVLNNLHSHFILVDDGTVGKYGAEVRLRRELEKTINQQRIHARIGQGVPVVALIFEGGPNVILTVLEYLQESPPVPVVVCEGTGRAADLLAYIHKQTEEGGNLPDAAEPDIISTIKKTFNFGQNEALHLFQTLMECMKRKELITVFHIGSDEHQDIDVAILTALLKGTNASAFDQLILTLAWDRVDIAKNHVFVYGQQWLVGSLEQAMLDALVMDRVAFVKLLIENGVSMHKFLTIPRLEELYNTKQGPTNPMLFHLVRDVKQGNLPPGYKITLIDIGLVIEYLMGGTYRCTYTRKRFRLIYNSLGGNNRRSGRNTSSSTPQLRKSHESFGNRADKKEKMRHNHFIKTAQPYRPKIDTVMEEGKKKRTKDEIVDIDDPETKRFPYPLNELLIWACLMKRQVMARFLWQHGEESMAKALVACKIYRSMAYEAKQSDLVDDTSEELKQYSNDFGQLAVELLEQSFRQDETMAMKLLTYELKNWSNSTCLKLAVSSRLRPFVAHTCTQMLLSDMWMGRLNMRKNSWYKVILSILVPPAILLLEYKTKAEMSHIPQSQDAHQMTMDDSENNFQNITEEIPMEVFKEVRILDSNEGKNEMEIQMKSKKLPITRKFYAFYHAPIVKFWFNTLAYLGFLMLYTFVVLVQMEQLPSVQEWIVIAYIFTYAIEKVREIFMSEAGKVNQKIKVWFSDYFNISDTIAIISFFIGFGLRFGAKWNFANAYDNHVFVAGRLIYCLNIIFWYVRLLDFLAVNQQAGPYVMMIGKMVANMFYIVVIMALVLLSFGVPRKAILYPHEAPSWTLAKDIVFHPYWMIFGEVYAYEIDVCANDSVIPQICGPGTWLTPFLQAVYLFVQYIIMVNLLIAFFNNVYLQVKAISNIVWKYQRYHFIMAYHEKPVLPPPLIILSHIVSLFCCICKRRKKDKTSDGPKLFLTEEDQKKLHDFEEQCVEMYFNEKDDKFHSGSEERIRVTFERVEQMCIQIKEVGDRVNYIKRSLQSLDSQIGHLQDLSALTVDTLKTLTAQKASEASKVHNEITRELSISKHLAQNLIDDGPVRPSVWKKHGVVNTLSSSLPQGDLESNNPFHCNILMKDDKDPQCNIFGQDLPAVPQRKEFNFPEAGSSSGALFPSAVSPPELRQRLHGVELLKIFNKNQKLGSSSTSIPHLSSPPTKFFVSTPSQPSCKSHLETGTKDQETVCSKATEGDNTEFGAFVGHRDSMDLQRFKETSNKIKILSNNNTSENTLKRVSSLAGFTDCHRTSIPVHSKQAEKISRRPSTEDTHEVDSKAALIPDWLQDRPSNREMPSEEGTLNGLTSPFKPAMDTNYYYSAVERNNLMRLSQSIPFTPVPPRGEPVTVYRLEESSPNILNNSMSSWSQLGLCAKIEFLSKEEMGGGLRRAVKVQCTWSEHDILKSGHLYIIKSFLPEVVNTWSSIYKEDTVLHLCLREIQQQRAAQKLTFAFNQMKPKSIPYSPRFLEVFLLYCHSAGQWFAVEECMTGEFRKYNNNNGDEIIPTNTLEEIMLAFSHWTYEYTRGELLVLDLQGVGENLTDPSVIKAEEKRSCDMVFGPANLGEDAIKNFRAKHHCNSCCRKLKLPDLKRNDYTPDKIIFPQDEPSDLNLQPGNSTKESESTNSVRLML
# Method: as §1
# [23] = target: panel of human kinases (kinase named in endpoint) (Homo sapiens, UniProt Q9HBY8); conditions: 10 µM; read-out: Activity (%), SGK2(h)
# Method: as §1
# [24] = target: panel of human kinases (kinase named in endpoint) (Homo sapiens, UniProt Q9UHD2); conditions: 10 µM; read-out: Activity (%), TBK1(h)
# Chain of panel of human kinases (kinase named in endpoint) (Homo sapiens, UniProt Q9UHD2) (Q9UHD2 whole entry): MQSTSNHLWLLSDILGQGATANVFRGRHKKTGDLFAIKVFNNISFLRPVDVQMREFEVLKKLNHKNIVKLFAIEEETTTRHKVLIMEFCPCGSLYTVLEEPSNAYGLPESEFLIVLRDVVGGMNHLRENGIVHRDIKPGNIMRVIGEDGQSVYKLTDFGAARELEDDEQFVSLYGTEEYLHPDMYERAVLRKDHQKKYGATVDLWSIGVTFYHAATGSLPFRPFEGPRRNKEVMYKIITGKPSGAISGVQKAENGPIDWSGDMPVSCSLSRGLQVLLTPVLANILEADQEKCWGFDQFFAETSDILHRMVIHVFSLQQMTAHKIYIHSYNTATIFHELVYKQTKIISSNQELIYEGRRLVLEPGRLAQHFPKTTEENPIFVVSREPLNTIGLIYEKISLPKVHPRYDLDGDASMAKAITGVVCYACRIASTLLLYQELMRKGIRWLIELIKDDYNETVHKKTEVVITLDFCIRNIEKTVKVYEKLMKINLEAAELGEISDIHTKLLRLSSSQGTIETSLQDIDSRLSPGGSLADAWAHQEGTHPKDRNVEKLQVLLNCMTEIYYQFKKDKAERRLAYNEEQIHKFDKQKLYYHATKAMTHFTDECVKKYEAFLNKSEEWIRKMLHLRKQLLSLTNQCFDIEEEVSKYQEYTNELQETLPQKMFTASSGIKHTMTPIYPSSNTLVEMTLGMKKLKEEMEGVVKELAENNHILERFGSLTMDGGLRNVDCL
# Method: as §1
# [25] = target: panel of human kinases (kinase named in endpoint) (Mus musculus, UniProt Q4JIM5); conditions: 10 µM; read-out: Activity (%), Arg(m)
# Method: as §1
structure (smiles),measurement,setting,value
CC(C)C(=O)Nc1nc2cc(-c3ccc4c(c3)c(C(=O)NC(C)c3ccccc3)cn4C)ccn2n1 (stereo not shown) [RI-962],activity at 10 µM,[1],101%
same,activity at 10 µM,[2],77%
same,activity at 10 µM,[3],99%
same,activity at 10 µM,[4],125%
same,activity at 10 µM,[5],99%
same,activity at 10 µM,[6],100%
same,activity at 10 µM,[7],99%
same,activity at 10 µM,[8],107%
same,activity at 10 µM,[9],90%
same,activity at 10 µM,[10],73%
same,activity at 10 µM,[11],92%
same,activity at 10 µM,[12],80%
same,activity at 10 µM,[13],76%
same,activity at 10 µM,[14],97%
same,activity at 10 µM,[15],104%
same,activity at 10 µM,[16],77%
same,activity at 10 µM,[17],124%
same,activity at 10 µM,[18],91%
same,activity at 10 µM,[19],88%
same,activity at 10 µM,[20],84%
same,activity at 10 µM,[21],113%
same,activity at 10 µM,[22],85%
same,activity at 10 µM,[23],120%
same,activity at 10 µM,[24],90%
same,activity at 10 µM,[25],90%
